Source: patent US5298523A, “Method for treating transplant patients using mycalamide compounds” (priority 1992, dated 1994)
Where two headings read alike, the source gives them in different places.

Tests used:
Type in all cases: cell-based
[1] = test system: two-way murine mixed lymphocyte response (C57BL/6J and BALB/c splenocytes); assay: Two-way murine mixed lymphocyte reaction (MLR), 3H-thymidine incorporation
Description: (§1) Preparation of splenocyte cell suspensions. […] The resulting supernatant was then transferred to another sterile centrifuge tube, and the cell concentration adjusted to 2×10^6 cells/ml dilution with TCM.
(§2) Two way mixed lymphocyte reaction (MLR). The immunosuppressive properties of mycalamide A were evaluated using the two-way MLR, utilizing murine splenocytes and human PBL. For the murine MLR, splenocytes from C57Bl/6J and BALB/c mice were prepared as described above, and a volume of […] of each cell suspension was added together to test and control wells of microtiter plates. Wells containing 0.20 ml of each cell suspension alone served as controls.
(§3) Dilutions of the drug to be tested were prepared in absolute EtOH and further diluted to the appropriate concentration in TCM and added directly to the wells containing splenocyte combinations. Additional solvent (EtOH) control wells were also prepared by adding the equivalent percentage of EtOH to each culture well. Plates were incubated at 37° C. in a 5% CO2 humidified atmosphere for 88 hours. Following the incubation, 1.0 μCi of ^3 H-thymidine was added to each well, and the plates were returned to the incubator for 5 hours. The contents of each well were harvested onto glass-fiber filter strips, and the incorporation of ^3 H-thymidine was determined by a liquid scintillation counter. Similar conditions were utilized for MLR cultures using human peripheral blood lymphocytes prepared from unrelated donors as described above, with the exception that the initial incubation and subsequent ^3 H-thymidine pulse times were different (114 hours for initial incubation followed by a 6-hour incubation with ^3 H-thymidine). Plates were harvested in a similar manner, and ^3 H-thymidine incorporation determined as described above.

[2] = Lymphocyte viability assay (LCV, MTT) on murine splenocytes; settings: mouse, splenocytes
Description: as §1
(§4) Determination of mycalamide A toxicity. The toxicity of mycalamide A on murine splenocytes and human PBL was determined using a colorimetric assay, based on the ability of viable cells to convert the colorless tetrazolium salt, 3-(4,5-dimethylthiazol-2yl)-2,5-diphenyl tetrazolium bromide (MTT) to a colored formazan product and trypan blue exclusion. For the colorimetric assay, a volume of 0.075 ml of an MTT solution (550 μg/ml of MTT in TCM) was added to test and control wells containing one of the populations of splenocytes or test wells and incubated for 5-6 hours following the initial incubation period. Microtiter plates were centrifuged at 100× g, supernatants carefully removed, and a volume of 0.20 ml of isopropyl alcohol was added to each well to dissolve the formazan crystals. The absorbance at 570 nm was determined for each well using an ELISA plate reader. […] As an additional parameter of toxicity, wells containing cultured lymphocytes with various dilutions of mycalamide A were examined with trypan blue, and the percentage of dye-excluding (viable) cells was determined.

murine splenocytes = assay: as above; settings: mitogen study, in words
Description: as §1, §4

[3] = test system: two-way human mixed lymphocyte response (human PBL); assay: Two-way human mixed lymphocyte reaction (MLR), 3H-thymidine incorporation
Description: Preparation of human peripheral blood leukocyte (PBL) suspensions. Human peripheral blood suspensions were prepared from Leukotrap blood filters as follows: Leukotrap filters containing processed leukocytes from random, unrelated blood donors were obtained from the Indian River Blood Bank (Vero Beach, Fla.). Buffy-coat blood cell suspensions were recovered by reverse-flow phosphate-buffered saline purging and centrifugation for 15 minutes at 475× g. Buffy coats were removed, and 5 ml of the suspension was layered onto 5 ml of Histopaque gradient material. The Histopaque gradients were centrifuged at 475× g for 30 minutes. Lymphocytes were removed from the Histopaque-medium interface, and washed twice with 10 ml of PBS (Dulbecco's phosphate-buffered saline without CaCl2 and MgCl2.6H2 O). The final cell pellet was resuspended in TCM, and the cell concentration adjusted to 2×10^6 cells/ml.
as §2, §3

## C=C1CC(OC)(C(O)C(=O)NC2OCOC3C2OC(CC(O)CO)C(C)(C)C3OC)OC(C)C1C (stereo not drawn) [Mycalamide A, mycalamide A]
[1]; Mus musculus, Splenocyte, 5.0 × 10^0 μg/ml, read-out: % of Positive Control MLR
  activity at 5 µg/mL: 0%
[1]; Mus musculus, Splenocyte, 5.0 × 10^1 μg/ml, read-out: % of Positive Control MLR
  activity at 50 µg/mL: 0%
[1]; Mus musculus, Splenocyte, 5.0 × 10^2 μg/ml, read-out: % of Positive Control MLR
  activity at 500 µg/mL: 0%
[1]; Mus musculus, Splenocyte, 5.0 × 10^-1 μg/ml, read-out: % of Positive Control MLR
  activity at 0.5 µg/mL: 0%
[1]; Mus musculus, Splenocyte, 5.0 × 10^-2 μg/ml, read-out: % of Positive Control MLR
  activity at 0.05 µg/mL: 0%
[1]; Mus musculus, Splenocyte, 5.0 × 10^-3 μg/ml, read-out: % of Positive Control MLR
  activity at 0.005 µg/mL: 0%
[1]; Mus musculus, Splenocyte, 5.0 × 10^-4 μg/ml, read-out: % of Positive Control MLR
  activity at 0.0005 µg/mL: 0%
[1]; Mus musculus, Splenocyte, 5.0 × 10^-5 μg/ml, read-out: % of Positive Control MLR
  activity at 50 pg/mL: 0%
[1]; Mus musculus, Splenocyte, 5.0 × 10^-6 μg/ml, read-out: % of Positive Control MLR
  activity at 5 pg/mL: 0%
[1]; Mus musculus, Splenocyte, 5.0 × 10^-7 μg/ml, read-out: % of Positive Control MLR
  activity at 500 fg/mL: 0%
[1]; Mus musculus, Splenocyte, 5.0 × 10^-8 μg/ml, read-out: % of Positive Control MLR
  activity at 50 fg/mL: 0%
[1]; Mus musculus, Splenocyte, 5.0 × 10^-9 μg/ml, read-out: % of Positive Control MLR
  activity at 5 fg/mL: 0%
[1]; Mus musculus, Splenocyte, 5.0 × 10^-10 μg/ml, read-out: % of Positive Control MLR
  activity at 5e-10 µg/mL: 0%
[1]; Mus musculus, Splenocyte, 5.0 × 10^-11 μg/ml, read-out: % of Positive Control MLR
  activity at 5e-11 µg/mL: 0%
[1]; Mus musculus, Splenocyte, 5.0 × 10^-12 μg/ml, read-out: % of Positive Control MLR
  activity at 5e-12 µg/mL: 0%
[1]; Mus musculus, Splenocyte, 5.0 × 10^-13 μg/ml, read-out: % of Positive Control MLR
  activity at 5e-13 µg/mL: 0%
[1]; Mus musculus, Splenocyte, 5.0 × 10^-14 μg/ml, read-out: % of Positive Control MLR
  activity at 5e-14 µg/mL: 0%
[1]; Mus musculus, Splenocyte, 5.0 × 10^-15 μg/ml, read-out: % of Positive Control MLR
  activity at 5e-15 µg/mL: 0%
[1]; Mus musculus, Splenocyte, 5.0 × 10^-16 μg/ml, read-out: % of Positive Control MLR
  activity at 5e-16 µg/mL: 0%
[1]; Mus musculus, Splenocyte, 5.0 × 10^-17 μg/ml, read-out: % of Positive Control MLR
  activity at 5e-17 µg/mL: 85%
[1]; Mus musculus, Splenocyte, 5.0 × 10^-18 μg/ml, read-out: % of Positive Control MLR
  activity at 5e-18 µg/mL: 82%
[1]; Mus musculus, Splenocyte, 5.0 × 10^-19 μg/ml, read-out: % of Positive Control MLR
  activity at 5e-19 µg/mL: 128%
[1]; murine
  range of concentrations that suppressed the MLR: 5×10^2 to 5×10^-16 μg/ml
[2]; MLR, 5.0 × 10^0 μg/ml, MTT, read-out: % Viability (LCV)
  viability: 0%
[2]; MLR, 5.0 × 10^1 μg/ml, MTT, read-out: % Viability (LCV)
  viability: 0%
[2]; MLR, 5.0 × 10^2 μg/ml, MTT, read-out: % Viability (LCV)
  viability: 0%
[2]; MLR, 5.0 × 10^-1 μg/ml, MTT, read-out: % Viability (LCV)
  viability: 55%
[2]; MLR, 5.0 × 10^-2 μg/ml, MTT, read-out: % Viability (LCV)
  viability: 79%
[2]; MLR, 5.0 × 10^-3 μg/ml, MTT, read-out: % Viability (LCV)
  viability: 66%
[2]; MLR, 5.0 × 10^-4 μg/ml, MTT, read-out: % Viability (LCV)
  viability: 62%
[2]; MLR, 5.0 × 10^-5 μg/ml, MTT, read-out: % Viability (LCV)
  viability: 63%
[2]; MLR, 5.0 × 10^-6 μg/ml, MTT, read-out: % Viability (LCV)
  viability: 83%
[2]; MLR, 5.0 × 10^-7 μg/ml, MTT, read-out: % Viability (LCV)
  viability: 71%
[2]; MLR, 5.0 × 10^-8 μg/ml, MTT, read-out: % Viability (LCV)
  viability: 100%
[2]; MLR, 5.0 × 10^-9 μg/ml, MTT, read-out: % Viability (LCV)
  viability: > 99%
[2]; MLR, 5.0 × 10^-10 μg/ml, MTT, read-out: % Viability (LCV)
  viability: > 99%
[2]; MLR, 5.0 × 10^-11 μg/ml, MTT, read-out: % Viability (LCV)
  viability: > 99%
[2]; MLR, 5.0 × 10^-12 μg/ml, MTT, read-out: % Viability (LCV)
  viability: > 99%
[2]; MLR, 5.0 × 10^-13 μg/ml, MTT, read-out: % Viability (LCV)
  viability: > 99%
[2]; MLR, 5.0 × 10^-14 μg/ml, MTT, read-out: % Viability (LCV)
  viability: > 99%
[2]; MLR, 5.0 × 10^-15 μg/ml, MTT, read-out: % Viability (LCV)
  viability: > 99%
[2]; MLR, 5.0 × 10^-16 μg/ml, MTT, read-out: % Viability (LCV)
  viability: > 99%
[2]; MLR, 5.0 × 10^-17 μg/ml, MTT, read-out: % Viability (LCV)
  viability: > 99%
[2]; MLR, 5.0 × 10^-18 μg/ml, MTT, read-out: % Viability (LCV)
  viability: > 99%
[2]; MLR, 5.0 × 10^-19 μg/ml, MTT, read-out: % Viability (LCV)
  viability: > 99%
[2]; mitogen study, 5.0 × 10^0 μg/ml, read-out: LCV, % viability
  viability: 1%
[2]; mitogen study, 5.0 × 10^1 μg/ml, read-out: LCV, % viability
  viability: 2%
[2]; mitogen study, 5.0 × 10^2 μg/ml, read-out: LCV, % viability
  viability: 3%
[2]; mitogen study, 5.0 × 10^-1 μg/ml, read-out: LCV, % viability
  viability: 4%
[2]; mitogen study, 5.0 × 10^-2 μg/ml, read-out: LCV, % viability
  viability: 3%
[2]; mitogen study, 5.0 × 10^-3 μg/ml, read-out: LCV, % viability
  viability: 3%
[2]; mitogen study, 5.0 × 10^-4 μg/ml, read-out: LCV, % viability
  viability: 4%
[2]; mitogen study, 5.0 × 10^-5 μg/ml, read-out: LCV, % viability
  viability: 180%
Murine splenocytes; 5×10^-5 μg/ml
  toxicity by LCV assay: no toxicity
Murine splenocytes; greater than 5×10^-5 μg/ml
  toxicity to the cells: toxic to the cells
[3]; 120 h, human, 5.0 × 10^-1 μg/ml, read-out: % of Positive Control MLR
  activity at 0.5 µg/mL: 0%
[3]; 120 h, human, 5.0 × 10^-2 μg/ml, read-out: % of Positive Control MLR
  activity at 0.05 µg/mL: 0%
[3]; 120 h, human, 5.0 × 10^-3 μg/ml, read-out: % of Positive Control MLR
  activity at 0.005 µg/mL: 0%
[3]; 120 h, human, 5.0 × 10^-4 μg/ml, read-out: % of Positive Control MLR
  activity at 0.0005 µg/mL: 40%
[3]; 120 h, human, 5.0 × 10^-5 μg/ml, read-out: % of Positive Control MLR
  activity at 50 pg/mL: 43%
[3]; 120 h, human, 5.0 × 10^-6 μg/ml, read-out: % of Positive Control MLR
  activity at 5 pg/mL: 71%
[3]; 120 h, human, 5.0 × 10^-7 μg/ml, read-out: % of Positive Control MLR
  activity at 500 fg/mL: 81%
[3]; Homo sapiens
  IC50: 0.017 ng/mL
